≈ marks a conversion by molar mass, not a printed value. Like-named read-outs stand apart in the source and are kept apart here. Positions of bridges follow the written chain, without caps; N, C: chain ends. Non-standard residues stand in square brackets, D forms with d. Residues, ends and D or L forms follow the SMILES beside them. *: point of attachment. Decanoyl(3R-OH) = CCCCCCC[C@@H](O)CC(=O)*; X3 = CCCCCCCCCCCC(O)CC(=O)*; Decanoyl = CCCCCCCCCC(=O)*; dDab = NCC[C@@H](N)C(=O)O; Dab = NCC[C@H](N)C(=O)O
Tests used:
[1] = tested on: S. aureus ATCC 25923, MSSA; settings: ATCC 25923
Protocol: (§1) Bacteria were either obtained from American Type Culture Collection (ATCC; Manassas, Va., USA) or independent academic clinical isolate collections, as listed in Table 18 below. Bacteria were cultured in Nutrient broth (NB; Bacto Laboratories, catalogue No. 234000) or Mueller Hinton broth (MHB; Bacto Laboratories, catalogue No. 211443) at 37° C. overnight with shaking (˜180 RPM). A sample of each culture was then diluted 50-fold in fresh MHB and incubated at 37° C. for 2-3 h with shaking (˜180 RPM). Compound stock solutions were prepared as 0.64 mg/mL or 2.56 mg/mL in water. The compounds, at twice the final desired concentration, were serially diluted 2-fold across the wells of 96-well plates (Polystyrene, Corning, catalogue No. 3370). Mid-log phase bacterial cultures (after 2-3 h incubation) were diluted to a final concentration of 1×10^6 colony forming units (CFU)/mL, and 50 μL was added to each well giving a final cell density of 5×10^5 and a compound concentration range of 32 μg/mL to 0.015 μg/mL (128-0.06 μg/mL against P. aeruginosa PA9704).

A. baumannii GN_093 PmxR = settings: GN 093 PmxR
Protocol: as §1

[2] = tested on: P. aeruginosa GN_043, PmxR
Protocol: as §1

K. pneumoniae ATCC 13883 = settings: ATCC 13883
Protocol: as §1

E. coli ATCC 25922 = settings: ATCC 25922
Protocol: as §1

[3] = tested on: K. pneumoniae ATCC 700603, MDR; settings: ATCC 700603
Protocol: as §1

[4] = tested on: K. pneumoniae ATCC BAA-2146, NDM-1 pos; settings: ATCC BAA-2146
Protocol: as §1

[5] = tested on: K. pneumoniae GN_106, PmxR; settings: GN 106, PmxR
Protocol: as §1

[6] = tested on: K. pneumoniae GN_102 PmxR; settings: GN 102 PmxR
Protocol: as §1

[7] = tested on: P. aeruginosa GN_105, PmxR; settings: GN 105, PmxR
Protocol: as §1

P. aeruginosa ATCC 27853 = settings: ATCC 27853
Protocol: as §1

A. baumannii ATCC 19606 = settings: ATCC 19606
Protocol: as §1

## CCCCCCCCCCCC(O)CC(=O)N[C@H](CCN)C(=O)N[C@H]1CCNC(=O)[C@H](CC(C)C)NC(=O)[C@H](CCN)NC(=O)[C@H](CCN)NC(=O)[C@H](CC(C)C)NC(=O)[C@@H](Cc2ccccc2)NC(=O)[C@H](CCN)NC1=O (stereo partly drawn) [compound 5015, 3OH-nC13CO-D-Dab-cyc[L-Dab-L-Dab-D-Phe-L-Leu-L-Dab-L-Dab-L-Leu]] (X3-[dDab][Dab][Dab][dF]L[Dab][Dab]L; lactam 2-C)
[1]
  MIC S. aureus ATCC 25923, MSSA: 4 µg/mL (≈ 3.63 µM)
A. baumannii GN_093 PmxR
  MIC A. baumannii GN_093 PmxR: 8 µg/mL (≈ 7.27 µM)
[2]
  MIC P. aeruginosa GN_043, PmxR: 4 µg/mL (≈ 3.63 µM)
K. pneumoniae ATCC 13883
  MIC K. pneumoniae ATCC 13883: 4 µg/mL (≈ 3.63 µM)
E. coli ATCC 25922
  MIC E. coli ATCC 25922: 4 µg/mL (≈ 3.63 µM)
[3]
  MIC K. pneumoniae ATCC 700603, MDR: 8 µg/mL (≈ 7.27 µM)
[4]
  MIC K. pneumoniae ATCC BAA-2146, NDM-1 pos: 8 µg/mL (≈ 7.27 µM)
[5]
  MIC K. pneumoniae GN_106, PmxR: 4 µg/mL (≈ 3.63 µM)
[6]
  MIC K. pneumoniae GN_102 PmxR: 8 µg/mL (≈ 7.27 µM)
[7]
  MIC P. aeruginosa GN_105, PmxR: 4 µg/mL (≈ 3.63 µM)
P. aeruginosa ATCC 27853
  MIC P. aeruginosa ATCC 27853: 4 µg/mL (≈ 3.63 µM)
A. baumannii ATCC 19606
  MIC A. baumannii ATCC 19606: 4 µg/mL (≈ 3.63 µM)

## CCCCCCCCCC(=O)N[C@H](CCN)C(=O)N[C@H]1CCNC(=O)[C@H](CC(C)C)NC(=O)[C@H](CCN)NC(=O)[C@H](CCN)NC(=O)[C@H](CC(C)C)NC(=O)[C@@H](Cc2ccccc2)NC(=O)[C@H](CCN)NC1=O [compound 5017, nC9CO-D-Dab-cyc[L-Dab-L-Dab-D-Phe-L-Leu-L-Dab-L-Dab-L-Leu]] (Decanoyl-[dDab][Dab][Dab][dF]L[Dab][Dab]L; lactam 2-C)
[1]
  MIC S. aureus ATCC 25923, MSSA: 16 µg/mL (≈ 15.6 µM)
A. baumannii GN_093 PmxR
  MIC A. baumannii GN_093 PmxR: 16 µg/mL (≈ 15.6 µM)
[2]
  MIC P. aeruginosa GN_043, PmxR: 2 µg/mL (≈ 1.94 µM)
K. pneumoniae ATCC 13883
  MIC K. pneumoniae ATCC 13883: 8 µg/mL (≈ 7.78 µM)
E. coli ATCC 25922
  MIC E. coli ATCC 25922: 4 µg/mL (≈ 3.89 µM)
[3]
  MIC K. pneumoniae ATCC 700603, MDR: 16 µg/mL (≈ 15.6 µM)
[4]
  MIC K. pneumoniae ATCC BAA-2146, NDM-1 pos: 16 µg/mL (≈ 15.6 µM)
[5]
  MIC K. pneumoniae GN_106, PmxR: 16 µg/mL (≈ 15.6 µM)
[6]
  MIC K. pneumoniae GN_102 PmxR: 32 µg/mL (≈ 31.1 µM)
[7]
  MIC P. aeruginosa GN_105, PmxR: 4 µg/mL (≈ 3.89 µM)
P. aeruginosa ATCC 27853
  MIC P. aeruginosa ATCC 27853: 2 µg/mL (≈ 1.94 µM)
A. baumannii ATCC 19606
  MIC A. baumannii ATCC 19606: 8 µg/mL (≈ 7.78 µM)

## CCCCCCC[C@@H](O)CC(=O)N[C@@H](CCCCN)C(=O)N[C@H]1CCNC(=O)[C@H](CC(C)C)NC(=O)[C@H](CCN)NC(=O)[C@H](CCN)NC(=O)[C@H](CC(C)C)NC(=O)[C@@H](Cc2ccccc2)NC(=O)[C@H](CCN)NC1=O [compound 5562, 3(R)OH-nC9CO-L-Lys-cyc[L-Dab-L-Dab-D-Phe-L-Leu-L-Dab-L-Dab-L-Leu]] ({Decanoyl(3R-OH)}-K[Dab][Dab][dF]L[Dab][Dab]L; lactam 2-C)
[1]
  MIC, S. aureus ATCC 25923, MSSA: 32 µg/mL (≈ 29.8 µM)
A. baumannii GN_093 PmxR
  MIC A. baumannii GN_093 PmxR: 32 µg/mL (≈ 29.8 µM)
[2]; Table 6, polymyxin-resistant
  MIC P. aeruginosa GN_043, PmxR: 4 µg/mL (≈ 3.73 µM)
K. pneumoniae ATCC 13883
  MIC, K. pneumoniae ATCC 13883: 8 µg/mL (≈ 7.46 µM)
E. coli ATCC 25922
  MIC, E. coli ATCC 25922: 8 µg/mL (≈ 7.46 µM)
[3]
  MIC, K. pneumoniae ATCC 700603, MDR: 4 µg/mL (≈ 3.73 µM)
[4]
  MIC, K. pneumoniae ATCC BAA-2146, NDM-1 pos: 8 µg/mL (≈ 7.46 µM)
[5]
  MIC K. pneumoniae GN_106, PmxR: 4 µg/mL (≈ 3.73 µM)
[6]
  MIC K. pneumoniae GN_102 PmxR: 4 µg/mL (≈ 3.73 µM)
[7]
  MIC P. aeruginosa GN_105, PmxR: >32 µg/mL
P. aeruginosa ATCC 27853
  MIC, P. aeruginosa ATCC 27853: 2 µg/mL (≈ 1.86 µM)
A. baumannii ATCC 19606
  MIC, A. baumannii ATCC 19606: >32 µg/mL
